The target in assay [1] is T1, 3-keto-steroid reductase/17-beta-hydroxysteroid dehydrogenase 7 (Homo sapiens) (UniProt P56937).
T1 sequence (whole entry): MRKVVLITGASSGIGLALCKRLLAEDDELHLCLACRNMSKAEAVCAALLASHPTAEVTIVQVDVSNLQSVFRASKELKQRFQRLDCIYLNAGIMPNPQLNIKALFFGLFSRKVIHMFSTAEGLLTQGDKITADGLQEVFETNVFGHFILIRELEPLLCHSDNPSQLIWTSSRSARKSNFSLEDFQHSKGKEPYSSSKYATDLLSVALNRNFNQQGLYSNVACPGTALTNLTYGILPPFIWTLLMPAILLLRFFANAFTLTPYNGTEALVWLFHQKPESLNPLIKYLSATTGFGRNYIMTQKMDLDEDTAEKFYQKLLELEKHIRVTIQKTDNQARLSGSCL
Conditions: HEK293, at 0.3 µM.
Description: Inhibition of human 17beta-HSD7 expressed in HEK293 cells assessed as inhibition of reduction of [14C]estrone into [14C]estradiol at 0.3 uM after 7 hrs

Assay [2] concerns the target T1, 3-keto-steroid reductase/17-beta-hydroxysteroid dehydrogenase 7 (Homo sapiens). Conditions: HEK293, at 3 µM.
Description: Inhibition of human 17beta-HSD7 expressed in HEK293 cells assessed as inhibition of reduction of [14C]estrone into [14C]estradiol at 3 uM after 7 hrs

Broadly, the inhibition is the relative decrease from the control value, in per cent. As to `CCCCCCCCCCN(C(=O)c1ccc(F)cc1)[C@H]1CC[C@H]2[C@@H]3CC[C@H]4N(C)C(=O)CC[C@]4(C)[C@H]3CC[C@]12C`, in assay [1], the inhibition is 71%. In assay [2], `C[C@]12CC[C@H](O)C[C@@H]1CC[C@@H]1[C@@H]2CC[C@]2(C)[C@@H](O)CC[C@@H]12` showed an inhibition of 4.5%. As for `CCCCCCCCCCCCN(C(=O)c1ccccc1Cl)[C@H]1CC[C@H]2[C@@H]3CC[C@H]4N(C)C(=O)CC[C@]4(C)[C@H]3CC[C@]12C`, the inhibition in assay [1] came out at 46%. Regarding `CCCCCCCc1ccc(C(=O)N(CCCCCCC)[C@H]2CC[C@H]3[C@@H]4CC[C@H]5N(C)C(=O)CC[C@]5(C)[C@H]4CC[C@]23C)cc1`, in assay [1], the inhibition came out at 24%. On the same count and under the same terms, as for `CCCCCCCCCCCCN(C(=O)c1ccc(OC)c(C(F)(F)F)c1)[C@H]1CC[C@H]2[C@@H]3CC[C@H]4N(C)C(=O)CC[C@]4(C)[C@H]3CC[C@]12C`, the figure is 51%. The same measure, in the same setting: as for `CCCCCCCN(C(=O)c1c(Cl)cccc1Cl)[C@H]1CC[C@H]2[C@@H]3CC[C@H]4N(C)C(=O)CC[C@]4(C)[C@H]3CC[C@]12C`, the figure is 28%. For `C[C@]12CCc3c(ccc4cc(O)ccc34)[C@@H]1CCC2=O`, in assay [2], the inhibition came out at 14.2%.

In assay [2], `CC1(C)CC[C@@]2(CC[C@H]3[C@@H]4CCc5ccccc5[C@H]4CC[C@@]32C)OC1=O` showed an inhibition of 18.6%.

The compound `CCCCCCCN(Cc1ccccc1)[C@H]1CC[C@H]2[C@@H]3CC[C@H]4N(C)C(=O)CC[C@]4(C)[C@H]3CC[C@]12C` registered an inhibition in assay [1] of 69%. The same measure, in the same setting: the figure for `CCCCCCCCCCCCN(C(=O)c1c(Cl)cccc1Cl)[C@H]1CC[C@H]2[C@@H]3CC[C@H]4N(C)C(=O)CC[C@]4(C)[C@H]3CC[C@]12C` is 18%.

`C[C@]12CC[C@H]3[C@@H](CC=C4C[C@@H](O)CC[C@@]43C)[C@@H]1CC[C@@H]2O`: in assay [2], the inhibition is 29.7%. On the same count and under the same terms, the figure for `CC(=O)[C@@]1(O)CC[C@H]2[C@@H]3CC[C@H]4CC(=O)CC[C@]4(C)[C@H]3CC[C@@]21C` is 14.5%. The compound `CCCCCCCCCCN(C(=O)c1ccc(I)cc1)[C@H]1CC[C@H]2[C@@H]3CC[C@H]4N(C)C(=O)CC[C@]4(C)[C@H]3CC[C@]12C` had an inhibition in assay [1] of 39%. With `C[C@]12CCC(=O)C[C@@H]1CC[C@@H]1[C@@H]2CC[C@]2(C)[C@@H](O)CC[C@@H]12`, the inhibition in assay [2] was found to be 49.6%.

For `CN(C)C(=O)CCCCCCCCCCC1Cc2cc(O)ccc2[C@H]2CC[C@]3(C)[C@@H](O)[C@H](Cl)C[C@H]3[C@H]12` (stereo not given in full), the inhibition in assay [2] was determined as 18.5%.

`CCCCCCCN(C(=O)c1ccc(OC)c(C(F)(F)F)c1)[C@H]1CC[C@H]2[C@@H]3CC[C@H]4N(C)C(=O)CC[C@]4(C)[C@H]3CC[C@]12C` gave an inhibition in assay [1] of 59%. Turning to `CCCCCCCCCCN(C(=O)c1ccc(C#N)cc1)[C@H]1CC[C@H]2[C@@H]3CC[C@H]4N(C)C(=O)CC[C@]4(C)[C@H]3CC[C@]12C`, the inhibition in assay [1] amounted to 49%. Same read-out and setting: as for `CCCCCCCN(C(=O)c1ccccc1)[C@H]1CC[C@H]2[C@@H]3CC[C@H]4N(C)C(=O)CC[C@]4(C)[C@H]3CC[C@]12C`, the figure is 56%. On the same count and under the same terms, the figure for `CCCCCCCCCCN(C(=O)c1c(F)cccc1F)[C@H]1CC[C@H]2[C@@H]3CC[C@H]4N(C)C(=O)CC[C@]4(C)[C@H]3CC[C@]12C` is 77%; for `CCCCCCCCCCN(C(=O)c1ccc(OC)c(C(F)(F)F)c1)[C@H]1CC[C@H]2[C@@H]3CC[C@H]4N(C)C(=O)CC[C@]4(C)[C@H]3CC[C@]12C` it is 46%. As for `CCCCCN(C(=O)c1ccc(Br)cc1)[C@H]1CC[C@H]2[C@@H]3CC[C@H]4N(C)C(=O)CC[C@]4(C)[C@H]3CC[C@]12C`, in assay [1], the inhibition came out at 63%. Compound `CCCCCCCCCCN(C(=O)c1ccc(Cl)cc1)[C@H]1CC[C@H]2[C@@H]3CC[C@H]4N(C)C(=O)CC[C@]4(C)[C@H]3CC[C@]12C` had an inhibition in assay [1] of 58%. The same measure, in the same setting: as for `CCCCCCCCCCN(C(=O)c1cc(F)ccc1F)[C@H]1CC[C@H]2[C@@H]3CC[C@H]4N(C)C(=O)CC[C@]4(C)[C@H]3CC[C@]12C`, the figure is 56%. With `CCCCCCCN(CC1CCCCC1)[C@H]1CC[C@H]2[C@@H]3CC[C@H]4N(C)C(=O)CC[C@]4(C)[C@H]3CC[C@]12C`, the inhibition in assay [1] came out at 45%. Same read-out and setting: as for `CCCCCCCN(C(=O)c1ccc(C#N)cc1)[C@H]1CC[C@H]2[C@@H]3CC[C@H]4N(C)C(=O)CC[C@]4(C)[C@H]3CC[C@]12C`, the figure is 56%; as for `CCCCCCCN(C(=O)C1CCCCC1)[C@H]1CC[C@H]2[C@@H]3CC[C@H]4N(C)C(=O)CC[C@]4(C)[C@H]3CC[C@]12C`, 0%; as for `CCCCCCCCCCN(C(=O)c1ccc(Br)cc1)[C@H]1CC[C@H]2[C@@H]3CC[C@H]4N(C)C(=O)CC[C@]4(C)[C@H]3CC[C@]12C`, 52%. On the same count and under the same terms, the figure for `CCCCCCCCCCCCN(C(=O)c1ccc(Cl)cc1)[C@H]1CC[C@H]2[C@@H]3CC[C@H]4N(C)C(=O)CC[C@]4(C)[C@H]3CC[C@]12C` is 40%. In assay [1], `CCCCCCCCCCCCN(C(=O)c1ccc(C#N)cc1)[C@H]1CC[C@H]2[C@@H]3CC[C@H]4N(C)C(=O)CC[C@]4(C)[C@H]3CC[C@]12C` showed an inhibition of 51%.

As to `CCCCCCCN(C(=O)c1ccc(Cl)cc1)[C@H]1CC[C@H]2[C@@H]3CC[C@H]4N(C)C(=O)CC[C@]4(C)[C@H]3CC[C@]12C`, the inhibition in assay [1] was 65%.

As for `CCCCCCCN(C(=O)c1ccc(CCl)cc1)[C@H]1CC[C@H]2[C@@H]3CC[C@H]4N(C)C(=O)CC[C@]4(C)[C@H]3CC[C@]12C`, the inhibition in assay [1] came out at 50%. Same read-out and setting: the figure for `CCCCCCCN(C(=O)c1ccc(F)cc1F)[C@H]1CC[C@H]2[C@@H]3CC[C@H]4N(C)C(=O)CC[C@]4(C)[C@H]3CC[C@]12C` is 73%.

For `CCCCCCCCCCN(C(=O)c1ccc(CCl)cc1)[C@H]1CC[C@H]2[C@@H]3CC[C@H]4N(C)C(=O)CC[C@]4(C)[C@H]3CC[C@]12C`, in assay [1], the inhibition came to 37%. Same read-out and setting: as for `CCCCCCCCCCCCN(C(=O)c1ccc(F)cc1)[C@H]1CC[C@H]2[C@@H]3CC[C@H]4N(C)C(=O)CC[C@]4(C)[C@H]3CC[C@]12C`, the figure is 47%; as for `CCCCCCCCCCN(C(=O)c1c(F)cccc1C(F)(F)F)[C@H]1CC[C@H]2[C@@H]3CC[C@H]4N(C)C(=O)CC[C@]4(C)[C@H]3CC[C@]12C`, 19%.

In the case of `CCCCCCCCCCN(C(=O)c1cccc(CCl)c1)[C@H]1CC[C@H]2[C@@H]3CC[C@H]4N(C)C(=O)CC[C@]4(C)[C@H]3CC[C@]12C`, the inhibition in assay [1] amounted to 30%. With `CCCCCCCN(C(=O)c1cc(F)cc(F)c1)[C@H]1CC[C@H]2[C@@H]3CC[C@H]4N(C)C(=O)CC[C@]4(C)[C@H]3CC[C@]12C`, the inhibition in assay [1] was found to be 56%. The compound `CCCCCCCCCCN(C(=O)c1c(Cl)cccc1Cl)[C@H]1CC[C@H]2[C@@H]3CC[C@H]4N(C)C(=O)CC[C@]4(C)[C@H]3CC[C@]12C` yielded an inhibition in assay [1] of 36%. On the same count and under the same terms, the figure for `CCCCCCCCCCN(C(=O)c1ccc(CCCCCCC)cc1)[C@H]1CC[C@H]2[C@@H]3CC[C@H]4N(C)C(=O)CC[C@]4(C)[C@H]3CC[C@]12C` is 11%; for `CCCCCCCCCCN(C(=O)c1cc(F)cc(F)c1)[C@H]1CC[C@H]2[C@@H]3CC[C@H]4N(C)C(=O)CC[C@]4(C)[C@H]3CC[C@]12C` it is 38%; for `CCCCCCCN(C(=O)c1ccc(Br)cc1)[C@H]1CC[C@H]2[C@@H]3CC[C@H]4N(C)C(=O)CC[C@]4(C)[C@H]3CC[C@]12C` it is 68%. `CCCCCCCN(C(=O)c1c(F)c(F)c(F)c(F)c1F)[C@H]1CC[C@H]2[C@@H]3CC[C@H]4N(C)C(=O)CC[C@]4(C)[C@H]3CC[C@]12C` yielded an inhibition in assay [1] of 67%. Same read-out and setting: as for `CCCCCCCCCCN(C(=O)c1c(F)c(F)c(F)c(F)c1F)[C@H]1CC[C@H]2[C@@H]3CC[C@H]4N(C)C(=O)CC[C@]4(C)[C@H]3CC[C@]12C`, the figure is 28%; as for `CCCCCCCCCCN(C(=O)c1ccc(F)cc1F)[C@H]1CC[C@H]2[C@@H]3CC[C@H]4N(C)C(=O)CC[C@]4(C)[C@H]3CC[C@]12C`, 80%; as for `CCCCCCCCCCCCN(C(=O)c1cccc(CCl)c1)[C@H]1CC[C@H]2[C@@H]3CC[C@H]4N(C)C(=O)CC[C@]4(C)[C@H]3CC[C@]12C`, 45%. On the same count and under the same terms, as for `CCCCCCCN(C(=O)c1c(F)cccc1C(F)(F)F)[C@H]1CC[C@H]2[C@@H]3CC[C@H]4N(C)C(=O)CC[C@]4(C)[C@H]3CC[C@]12C`, the figure is 49%. The same measure, in the same setting: the figure for `CCCCCCCN(C(=O)c1cccc(CCl)c1)[C@H]1CC[C@H]2[C@@H]3CC[C@H]4N(C)C(=O)CC[C@]4(C)[C@H]3CC[C@]12C` is 24%; for `CCCCCCCN(C(=O)c1cc(F)ccc1F)[C@H]1CC[C@H]2[C@@H]3CC[C@H]4N(C)C(=O)CC[C@]4(C)[C@H]3CC[C@]12C` it is 59%. Consider `CCCCCCCN(C(=O)c1ccc(I)cc1)[C@H]1CC[C@H]2[C@@H]3CC[C@H]4N(C)C(=O)CC[C@]4(C)[C@H]3CC[C@]12C`, for which the inhibition in assay [1] was 60%. Still for that read-out and setting: as for `CCCCCCCN(C(=O)c1ccc(C(C)(C)C)cc1)[C@H]1CC[C@H]2[C@@H]3CC[C@H]4N(C)C(=O)CC[C@]4(C)[C@H]3CC[C@]12C`, the figure is 29%. With `CCCCCCCCCCCCN(C(=O)c1ccc(Br)cc1)[C@H]1CC[C@H]2[C@@H]3CC[C@H]4N(C)C(=O)CC[C@]4(C)[C@H]3CC[C@]12C`, the inhibition in assay [1] was determined as 52%. `CCCCCCCCCCN(C(=O)c1ccccc1Cl)[C@H]1CC[C@H]2[C@@H]3CC[C@H]4N(C)C(=O)CC[C@]4(C)[C@H]3CC[C@]12C` gave an inhibition in assay [1] of 37%.

`CCCCCCCCCCCCN(C(=O)c1ccc(CCl)cc1)[C@H]1CC[C@H]2[C@@H]3CC[C@H]4N(C)C(=O)CC[C@]4(C)[C@H]3CC[C@]12C`: the inhibition in assay [1] was 33%. In assay [1], `CCCCCCCN(C(=O)c1ccccc1Cl)[C@H]1CC[C@H]2[C@@H]3CC[C@H]4N(C)C(=O)CC[C@]4(C)[C@H]3CC[C@]12C` came in with an inhibition of 37%.

In assay [1], `CCCCCCCCCCN(C(=O)c1ccc(C(C)(C)C)cc1)[C@H]1CC[C@H]2[C@@H]3CC[C@H]4N(C)C(=O)CC[C@]4(C)[C@H]3CC[C@]12C` registered an inhibition of 4%.
